The text below walks through data of PubChem BioAssay AID1919003 (Molecular Pharmacology Branch, DTP, NCI, 2023).

Several values for one entry are separate records, joined by “and”; a condition that tells them apart may be missing. Identical values can stand only once. Some results are limits rather than exact numbers.

This assay concerns 786-0 complex spheroids with HUVEC/MSC, growth % test/control. Briefly: Anticancer human tumor 786-0 cell line growth inhibition [AhR].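 On all read-outs here: compound exposure lasted seven days before the read-out.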 Conditions: for viability, T/C: stronger effect = lower value. In a few lines:
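Complex tumor spheroids co-cultured with HUVEC and human MSC stroma; AhR antagonists tested in combination with standard-of-care and investigational agents. Top concentration at or near clinical Cmax (else 10 microM), half-log dilutions; growth expressed as percent test/control.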

Setting [1] is: curve of first compound, second compound 0.1 µM.
[2] abbreviates: curve of first compound, second compound 0.316 µM.
[3] abbreviates: curve of first compound, second compound 1 µM.
[4] abbreviates: curve of first compound, second compound 3.16 µM.
The mark [5] stands for this setting: curve of first compound, second compound 10 µM.
Setting [6] is: second compound 0.1 µM, first compound 0.0316 µM.
[7] abbreviates: second compound 0.1 µM, first compound 0.1 µM.
Where [8] appears, read: second compound 0.1 µM, first compound 0.316 µM.
Setting [9] is: second compound 0.1 µM, first compound 1 µM.
[10] abbreviates: second compound 0.1 µM, first compound 3.16 µM.
[11] abbreviates: second compound 0.1 µM, first compound 10 µM.
[12] abbreviates: second compound 0.316 µM, first compound 0.0316 µM.
Where [13] appears, read: second compound 0.316 µM, first compound 0.1 µM.
Where [14] appears, read: second compound 0.316 µM, first compound 0.316 µM.
The mark [15] stands for this setting: second compound 0.316 µM, first compound 1 µM.
Where [16] appears, read: second compound 0.316 µM, first compound 3.16 µM.
The mark [17] stands for this setting: second compound 0.316 µM, first compound 10 µM.
Where [18] appears, read: second compound 1 µM, first compound 0.0316 µM.
[19] abbreviates: second compound 1 µM, first compound 0.1 µM.
[20] abbreviates: second compound 1 µM, first compound 0.316 µM.
Setting [21] is: second compound 1 µM, first compound 1 µM.
Where [22] appears, read: second compound 1 µM, first compound 3.16 µM.
The mark [23] stands for this setting: second compound 1 µM, first compound 10 µM.
[24] abbreviates: second compound 3.16 µM, first compound 0.0316 µM.
Where [25] appears, read: second compound 3.16 µM, first compound 0.1 µM.
[26] abbreviates: second compound 3.16 µM, first compound 0.316 µM.
Setting [27] is: second compound 3.16 µM, first compound 1 µM.
Setting [28] is: second compound 3.16 µM, first compound 3.16 µM.
The mark [29] stands for this setting: second compound 3.16 µM, first compound 10 µM.
Where [30] appears, read: second compound 10 µM, first compound 0.0316 µM.
[31] abbreviates: second compound 10 µM, first compound 0.1 µM.
Setting [32] is: second compound 10 µM, first compound 0.316 µM.
The mark [33] stands for this setting: second compound 10 µM, first compound 1 µM.
Where [34] appears, read: second compound 10 µM, first compound 3.16 µM.
[35] abbreviates: second compound 10 µM, first compound 10 µM.

As to `CC1COCCN1c1cc(C2(S(C)(=N)=O)CC2)nc(-c2ccnc3[nH]ccc23)n1` (centres undefined) + CC(CO)NC(=O)c1cc(-c2ccc(Cl)cc2)nn(-c2cnn(C)c2)c1=O, the IC50 under setting [1] was found to be 3020 nM; the half-maximal inhibitory concentration (IC50) under setting [2] came out at 2780 nM; the half-maximal inhibitory concentration (IC50) under setting [3] was 2640 nM; the IC50 under setting [4] is 2570 nM; the concentration for half-maximal inhibition (IC50) under setting [5] is 2090 nM. Also, the viability, T/C is 99.7% under setting [6]; 99.5% under setting [7]; 98.1% under setting [8]; 99.4% under setting [9]; 48% under setting [10]; 15.7% under setting [11]. Moreover, the viability, T/C was 101% under setting [12]; 110% under setting [13]; 96.2% under setting [14]; 101% under setting [15]; 43.6% under setting [16]; 17.3% under setting [17]. Besides, the viability, T/C is 108% under setting [18]; 102% under setting [19]; 113% under setting [20]; 97.4% under setting [21]; 41.3% under setting [22]; 13.7% under setting [23]. Moreover, the viability, T/C under setting [24] was 108%; the viability, T/C under setting [25] was 101%; the viability, T/C under setting [26] was 118%; the viability, T/C under setting [27] is 107%; the viability, T/C under setting [28] is 37.5%; the viability, T/C under setting [29] is 10.8%. Further, the viability, T/C reads like this: under setting [30], 110%; under setting [31], 118%; under setting [32], 115%; under setting [33], 93.6%; under setting [34], 25.5%; under setting [35], 8.6%.

Regarding `CC(C)CC(NC(=O)C(Cc1ccccc1)NC(=O)c1cnccn1)B(O)O` (centres undefined), the viability, T/C was 100% and 102% and 98.1% (compound 0.000949 µM); 105% and 104% and 116% (compound 0.003 µM); 63.4% and 99.9% and 35.7% (compound 0.00949 µM); 3.86% and 13.5% and 0.66% (compound 0.03 µM); 0.45% and 1.34% and 0.4% (compound 0.0949 µM); 1.25% and 0.84% and 0.27% (compound 0.3 µM). For the same compound, where the note is “curve of compound”, the half-inhibitory concentration (IC50) was 12.3 nM and 18.4 nM and 7.53 nM.

For `COc1cc(Nc2ncc3c(n2)-c2ccc(Cl)cc2C(c2c(F)cccc2OC)=NC3)ccc1C(=O)O` + Cc1ccccc1N=Nc1ccc(NC(=O)c2ccnn2C)c(C)c1, the IC50 reads like this: under setting [1], 4130 nM; under setting [2], 3610 nM; under setting [3], 3780 nM; under setting [4], 4820 nM; under setting [5], 5410 nM. Further, the viability, T/C is 98.7% under setting [6]; 109% under setting [7]; 117% under setting [8]; 84.7% under setting [9]; 58.3% under setting [10]; 30.1% under setting [11]. Moreover, the viability, T/C runs as follows: under setting [12], 107%; under setting [13], 107%; under setting [14], 133%; under setting [15], 91.6%; under setting [16], 55.1%; under setting [17], 28.7%. Besides, the viability, T/C is 108% under setting [18]; 109% under setting [19]; 121% under setting [20]; 89.2% under setting [21]; 55.5% under setting [22]; 30.2% under setting [23]. In addition, the viability, T/C reads like this: under setting [24], 95.8%; under setting [25], 98.4%; under setting [26], 103%; under setting [27], 82.3%; under setting [28], 63.2%; under setting [29], 29.2%. Further, the viability, T/C is 83.3% under setting [30]; 85.3% under setting [31]; 106% under setting [32]; 91.8% under setting [33]; 60.2% under setting [34]; 38.2% under setting [35].

On to `Nc1ncn(C2CC(O)C(CO)O2)c(=O)n1` (centres undefined), for which the viability, T/C was 99.4% and 101% and 104% (compound 0.00316 µM); 102% and 81.5% and 104% (compound 0.01 µM); 98.7% and 88.8% and 106% (compound 0.0316 µM); 96.5% and 86% and 94.8% (compound 0.1 µM); 81.5% and 69.4% and 93.1% (compound 0.316 µM); 85.2% and 54.8% and 84.6% (compound 1 µM). In addition, the 50% inhibitory concentration (IC50) (curve of compound) is > 1000 nM.
